Data as given in US6737383B1, “Herbicidal oxadiazolidines” (priority 1999, dated 2004).

Columns and labels:
[1] = test system: smallflower flatsedge; assay: Test B flood test smallflower flatsedge; format: in vivo, Cyperus difformis
Method in brief: (§1)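 Flood test on plants grown to the 2-leaf stage; treated plants kept in greenhouse twelve to sixteen days, then visually rated against controls on a 0 (no effect) to 10 (complete control) scale.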

[2] = test system: velvetleaf; assay: Test B pre/postemergence velvetleaf; format: in vivo, Abutilon theophrasti; conditions: Preemergence
Method in brief: (§2)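 Herbicidal effect was estimated by eye on a ten-point control scale after plants spent twelve to sixteen days in a greenhouse following soil or foliar treatment. Foliar sprays targeted plants at one to four leaves; all doses were formulated in a non-phytotoxic solvent with surfactant.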

[3] = test system: soybean; assay: Test B pre/postemergence soybean; format: in vivo, Glycine max; conditions: Preemergence
Method in brief: as §2

[4] = test system: duck salad; assay: Test B flood test duck salad; format: in vivo, Heteranthera limosa
Method in brief: as §1

[5] = test system: bedstraw; assay: Test B pre/postemergence bedstraw; format: in vivo, Galium aparine
Method in brief: as §2

[6] = test system: rice; assay: Test B flood test rice; format: in vivo, Oryza sativa
Method in brief: as §1

[7] = test system: bamyardgrass; assay: Test B flood test barnyardgrass; format: in vivo, Echinochloa crus-galli
Method in brief: as §1

[8] = test system: purple nutsedge; assay: Test B pre/postemergence purple nutsedge; format: in vivo, Cyperus rotundus
Method in brief: as §2

[9] = test system: giant foxtail; assay: Test B pre/postemergence giant foxtail; format: in vivo, Setaria faberii
Method in brief: as §2

[10] = test system: cocklebur; assay: Test B pre/postemergence cocklebur; format: in vivo, Xanthium strumarium
Method in brief: as §2

[11] = test system: surinam grass; assay: Test B pre/postemergence surinam grass; format: in vivo, Brachiaria decumbens
Method in brief: as §2

[12] = test system: crabgrass; assay: Test B pre/postemergence crabgrass; format: in vivo, Digitaria sanguinalis
Method in brief: as §2

[13] = test system: corn; assay: Test B pre/postemergence corn; format: in vivo, Zea mays
Method in brief: as §2

[14] = test system: morningglory; assay: Test B pre/postemergence morningglory; format: in vivo, Ipomoea hederacea
Method in brief: as §2

[15] = test system: wild oat; assay: Test B pre/postemergence wild oat; format: in vivo, Avena fatua; conditions: Preemergence
Method in brief: as §2

[16] = test system: rape; assay: Test B pre/postemergence rape; format: in vivo, Brassica napus
Method in brief: as §2

[17] = test system: sugar beet; assay: Test B pre/postemergence sugar beet; format: in vivo, Beta vulgaris; conditions: Preemergence
Method in brief: as §2

[18] = test system: wheat; assay: Test B pre/postemergence wheat; format: in vivo, Triticum aestivum; conditions: Preemergence
Method in brief: as §2

[19] = test system: blackgrass; assay: Test B pre/postemergence blackgrass; format: in vivo, Alopecurus myosuroides
Method in brief: as §2

[20] = test system: pigweed; assay: Test B pre/postemergence pigweed; format: in vivo, Amaranthus retroflexus
Method in brief: as §2

[21] = Rate 62 g/ha, headed Pre-emergence (flood test species), scale 0 to 10 (0 no effect, 10 complete control)
[22] = Rate 125 g/ha, Pre-emergence, flood test species, scale 0 to 10 where 0 is no effect and 10 is complete control
[23] = Rate 250 g/ha, Pre-emergence, flood-test species, scale 0 to 10, 0 is no effect, 10 is complete control
[24] = Rate 500 g/ha, Pre-emergence, flood test species, scale 0 to 10 (0 no effect, 10 complete control)
[25] = Rate 31 g/ha, visual rating, scale 0 to 10 (0 no effect, 10 complete control)
[26] = Rate 62 g/ha, scale of 0 to 10 where 0 is no effect and 10 is complete control
[27] = Rate 250 g/ha, scale of 0 to 10 where 0 is no effect and 10 is complete control
[28] = Rate 125 g/ha, scale of 0 to 10 where 0 is no effect and 10 is complete control
[29] = Preemergence, Rate 31 g/ha, visual rating, scale 0 to 10 (0 no effect, 10 complete control)
[30] = Preemergence, Rate 62 g/ha, scale of 0 to 10 where 0 is no effect and 10 is complete control
[31] = Preemergence, Rate 250 g/ha, scale of 0 to 10 where 0 is no effect and 10 is complete control
[32] = Rate 31 g/ha, Postemergence, scale 0 to 10
[33] = Rate 62 g/ha, Postemergence, scale of 0 to 10 where 0 is no effect and 10 is complete control
[34] = Rate 125 g/ha, Postemergence, scale 0 to 10
[35] = Rate 125 g/ha, Preemergence, scale of 0 to 10 where 0 is no effect and 10 is complete control

## C=C(Cn1c(=O)on(C(=O)N(c2ccc(F)cc2)C(C)C)c1=O)C[Si](C)(C)C [Compound 256]
[1]; [21]
  S. Flatsedge plant response rating: 0
[1]; [22]
  S. Flatsedge plant response rating: 0
[1]; [23]
  S. Flatsedge plant response rating: 0
[1]; [24]
  S. Flatsedge plant response rating: 0
[2]; [25]
  Velvetleaf plant response rating: 0
[2]; [26]
  Velvetleaf plant response rating: 0
[2]; [27]
  Velvetleaf plant response rating: 0
[2]; [28]
  Velvetleaf plant response rating: 0
[3]; [25]
  Soybean plant response rating: 0
[3]; [26]
  Soybean plant response rating: 0
[3]; [27]
  Soybean plant response rating: 0
[3]; [28]
  Soybean plant response rating: 0
[4]; [21]
  Ducksalad plant response rating: 0
[4]; [22]
  Ducksalad plant response rating: 0
[4]; [23]
  Ducksalad plant response rating: 0
[4]; [24]
  Ducksalad plant response rating: 0
[5]; [29]
  Bedstraw plant response rating: 0
[5]; [30]
  Bedstraw plant response rating: 0
[5]; [31]
  Bedstraw plant response rating: 0
[5]; [32]
  Bedstraw plant response rating: 0
[5]; [33]
  Bedstraw plant response rating: 0
[5]; [34]
  Bedstraw plant response rating: 0
[5]; [35]
  Bedstraw plant response rating: 0
[5]; Rate 250 g/ha, Postemergence
  Plant response rating (0 to 10; 0 is no effect, 10 is complete control), Bedstraw: 0
[6]; [21]
  Rice plant response rating: 0
[6]; [22]
  Rice plant response rating: 0
[6]; [23]
  Rice plant response rating: 0
[6]; [24]
  Rice plant response rating: 0
[7]; [21]
  Barnyardgrass plant response rating: 0
[7]; [22]
  Barnyardgrass plant response rating: 0
[7]; [23]
  Barnyardgrass plant response rating: 0
[7]; [24]
  Barnyardgrass plant response rating: 0
[8]; [31]
  Nutsedge plant response rating: 0
[8]; [32]
  Nutsedge plant response rating: 0
[8]; Rate 250 g/ha, Postemergence
  Plant response rating (0 to 10; 0 is no effect, 10 is complete control), Nutsedge: 0
[9]; [29]
  Giant foxtail plant response rating: 0
[9]; [30]
  Giant foxtail plant response rating: 0
[9]; [31]
  Giant foxtail plant response rating: 9
[9]; [32]
  Giant foxtail plant response rating: 0
[9]; [35]
  Giant foxtail plant response rating: 5
[9]; Rate 250 g/ha, Postemergence
  Plant response rating (0 to 10; 0 is no effect, 10 is complete control), Giant foxtail: 0
[10]; [29]
  Cocklebur plant response rating: 0
[10]; [30]
  Cocklebur plant response rating: 0
[10]; [31]
  Cocklebur plant response rating: 0
[10]; [32]
  Cocklebur plant response rating: 0
[10]; [33]
  Cocklebur plant response rating: 0
[10]; [34]
  Cocklebur plant response rating: 0
[10]; [35]
  Cocklebur plant response rating: 0
[10]; Rate 250 g/ha, Postemergence
  Plant response rating (0 to 10; 0 is no effect, 10 is complete control), Cocklebur: 0
[11]; [29]
  B. signalgrass plant response rating: 0
[11]; [30]
  B. signalgrass plant response rating: 0
[11]; [31]
  B. signalgrass plant response rating: 0
[11]; [32]
  B. signalgrass plant response rating: 0
[11]; [33]
  B. signalgrass plant response rating: 0
[11]; Rate 125 g/ha, Postemergence, scale 0 (no effect) to 10 (complete control)
  B. signalgrass plant response rating: 0
[11]; [35]
  B. signalgrass plant response rating: 0
[11]; Rate 250 g/ha, Postemergence
  Plant response rating (0 to 10; 0 is no effect, 10 is complete control), B. signalgrass: 0
[12]; [29]
  Crabgrass plant response rating: 0
[12]; [30]
  Crabgrass plant response rating: 0
[12]; [31]
  Crabgrass plant response rating: 2
[12]; [32]
  Crabgrass plant response rating: 0
[12]; [35]
  Crabgrass plant response rating: 2
[12]; Rate 250 g/ha, Postemergence
  Plant response rating (0 to 10; 0 is no effect, 10 is complete control), Crabgrass: 1
[13]; [29]
  Corn plant response rating: 0
[13]; [30]
  Corn plant response rating: 0
[13]; [31]
  Corn plant response rating: 0
[13]; [32]
  Corn plant response rating: 0
[13]; [33]
  Corn plant response rating: 0
[13]; [34]
  Corn plant response rating: 0
[13]; [35]
  Corn plant response rating: 0
[13]; Rate 250 g/ha, Postemergence
  Plant response rating (0 to 10; 0 is no effect, 10 is complete control), Corn: 0
[14]; [29]
  Morningglory plant response rating: 0
[14]; [30]
  Morningglory plant response rating: 0
[14]; [31]
  Morningglory plant response rating: 0
[14]; [32]
  Morningglory plant response rating: 6
[14]; [35]
  Morningglory plant response rating: 0
[15]; [25]
  Wild oats plant response rating: 0
[15]; [26]
  Wild oats plant response rating: 0
[15]; [27]
  Wild oats plant response rating: 0
[15]; [28]
  Wild oats plant response rating: 0
[16]; [29]
  Rape plant response rating: 0
[16]; [30]
  Rape plant response rating: 0
[16]; [31]
  Rape plant response rating: 0
[16]; [32]
  Rape plant response rating: 0
[16]; [35]
  Rape plant response rating: 0
[16]; Rate 250 g/ha, Postemergence
  Plant response rating (0 to 10; 0 is no effect, 10 is complete control), Rape: 2
[17]; [25]
  Sugarbeets plant response rating: 0
[17]; [26]
  Sugarbeets plant response rating: 0
[17]; [27]
  Sugarbeets plant response rating: 0
[17]; [28]
  Sugarbeets plant response rating: 0
[18]; [25]
  Wheat plant response rating: 0
[18]; [26]
  Wheat plant response rating: 0
[18]; [27]
  Wheat plant response rating: 0
[18]; [28]
  Wheat plant response rating: 0
[19]; [29]
  Blackgrass plant response rating: 0
[19]; [30]
  Blackgrass plant response rating: 0
[19]; [31]
  Blackgrass plant response rating: 0
[19]; [32]
  Blackgrass plant response rating: 0
[19]; [33]
  Blackgrass plant response rating: 0
[19]; [34]
  Blackgrass plant response rating: 0
[19]; [35]
  Blackgrass plant response rating: 0
[19]; Rate 250 g/ha, Postemergence
  Plant response rating (0 to 10; 0 is no effect, 10 is complete control), Blackgrass: 0
[20]; [29]
  Redroot pigweed plant response rating: 0
[20]; [30]
  Redroot pigweed plant response rating: 0
[20]; [31]
  Redroot pigweed plant response rating: 0
[20]; [32]
  Redroot pigweed plant response rating: 0
[20]; [35]
  Redroot pigweed plant response rating: 0
[20]; Rate 250 g/ha, Postemergence
  Plant response rating (0 to 10; 0 is no effect, 10 is complete control), Redroot pigweed: 4
